Experimental findings from ChEMBL document CHEMBL1201862, “PubChem BioAssay data set” (2004) are described below.

Molecules are shown by their SMILES.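 Step 1: Grow cells in 96-well plates. Step 2: Expose to compound for 48 hours at 5 concentrations. Step 3: Interpolate endpoints linearly; if unreached, use highest concentration. Here, GI50 denotes the concentration required for 50% inhibition of growth.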 Calls of active or inactive are those of the source. Cut-off read from the data, not from the text of the source: active = GI50 up to about 1.1 µM and inactive = higher. Where only a bound is given, the exact number is not on record here.

Common to all, as to assay: NCI tumour cell line growth inhibition, 48 h
The subject of experiment [1] is A549.
In experiment [2] the test system is CAKI-1.
For experiment [3], the system named is HCT-116.
In experiment [4] the test system is HCT-15.
Experiment [5] has as its system HOP-62.
Experiment [6] has as its system KM12.
The subject of experiment [7] is MCF7.
Experiment [8] concerns MDA-N.
The subject of experiment [9] is NCI-H522.
Experiment [10] deals with OVCAR-5.
In experiment [11] the test system is OVCAR-8.
In experiment [12] the test system is RPMI-8226.
The subject of experiment [13] is SF-268.
The subject of experiment [14] is SK-OV-3.
The test system of experiment [15] is T47D.
Experiment [16] concerns TK-10.
Experiment [17] relates to U-251.
Experiment [18] relates to UACC-62.
Experiment [19] has as its system Malme-3M.

In the case of `COc1cc2c(C)cc(O)cc2c2cc(O)c(C)cc12`, the GI50 in [1] is 12.9 µM (inactive); in experiment [2], 11.7 µM (inactive); in [3] it was 10.7 µM (inactive); in experiment [4], 8.55 µM; in [5], 5.57 µM (inactive); in [6], 5.24 µM (inactive). The GI50 in [7] is 10.4 µM (inactive); in experiment [8], 10.2 µM (inactive); in experiment [9] it was 13.7 µM (inactive); in experiment [10] it was 13.7 µM (inactive); in [11], 14.4 µM (inactive); in [12] it was 1.91 µM (inactive). In addition, the GI50 in experiment [13] is 13.7 µM (inactive); in experiment [14], 12.9 µM (inactive); in experiment [15] it was 10.1 µM (inactive); in experiment [16] it was 13.3 µM (inactive); in [17], 11.2 µM (inactive); in [18] it was 12 µM (inactive).
In the case of `CCOC(=O)c1c(NCc2ccccc2)n(-c2ccccc2)c(=S)n(-c2ccccc2)c1=O`, the GI50 in experiment [1] is 91.6 µM (inactive); in experiment [4], 63.1 µM; in experiment [6], > 100 µM (inactive); in experiment [7] it was 53.3 µM (inactive); in [8] it was > 100 µM (inactive); in experiment [19], > 100 µM (inactive). The GI50 in [9] is 57.8 µM (inactive); in experiment [10], > 100 µM (inactive); in experiment [11] it was > 100 µM (inactive); in experiment [12] it was 35.6 µM (inactive); in [13], > 100 µM (inactive); in experiment [15], 66.4 µM (inactive). For the same compound, the GI50 in experiment [16] was > 100 µM (inactive); in experiment [17] it was > 100 µM (inactive); in experiment [18], 94.8 µM (inactive).
As for `CN1CC2=C(N=C(S)NC2c2ccccc2Cl)/C(=C/c2ccccc2Cl)C1` (stereo not given), the GI50 in [1] was 30.5 µM (inactive); in experiment [2] it was > 100 µM (inactive); in experiment [3] it was 30.9 µM (inactive); in [4] it was 64.1 µM; in [5] it was > 100 µM (inactive); in experiment [6] it was 56.1 µM (inactive). Besides, the GI50 is > 100 µM (inactive) in experiment [7]; 60.3 µM (inactive) in experiment [8]; 25.9 µM (inactive) in experiment [19]; 29.6 µM (inactive) in [9]; > 100 µM (inactive) in experiment [10]; 33 µM (inactive) in [11]. Moreover, the GI50 in [13] was 95.9 µM (inactive); in experiment [14] it was > 100 µM (inactive); in [15], 58.3 µM (inactive); in experiment [16], 71.3 µM (inactive); in experiment [17], 80.5 µM (inactive); in experiment [18], 14.7 µM (inactive).
For the compound `COc1ccccc1N1CCN(S(=O)(=O)c2ccc(Cl)cc2)C1=N`, the GI50 was 34.2 µM (inactive) in [1]; > 100 µM (inactive) in [2]; 27.9 µM (inactive) in experiment [3]; 62.4 µM in experiment [4]; > 100 µM (inactive) in experiment [5]; 82.4 µM (inactive) in experiment [6]. The GI50 in experiment [7] was 52.2 µM (inactive); in experiment [8], 49.3 µM (inactive); in [9], 40.5 µM (inactive); in experiment [10], 22.4 µM (inactive); in experiment [11], 63.2 µM (inactive); in experiment [12], 93.8 µM (inactive). Also, the GI50 in experiment [13] is > 100 µM (inactive); in experiment [14] it was > 100 µM (inactive); in experiment [15] it was 68.7 µM (inactive); in experiment [16] it was 60.7 µM (inactive); in [17] it was 37.5 µM (inactive); in experiment [18], 26.3 µM (inactive).
In the case of `CCOC(=O)C1CN(C2CC2)CCC1=O` (stereo not given), the GI50 in [1] was > 100 µM (inactive); in [2] it was > 100 µM (inactive); in experiment [3] it was > 100 µM (inactive); in experiment [4], > 100 µM; in experiment [5] it was > 100 µM (inactive); in experiment [6], > 100 µM (inactive). The GI50 in experiment [7], in experiment [8], in [19], in experiment [10], in experiment [11] and in [12] was > 100 µM (inactive) each time. Further, the GI50 in experiment [13], in [14], in experiment [15], in experiment [16], in [17] and in experiment [18] was > 100 µM (inactive) each time.
With `COC(=O)N[C@@H]1C[C@H]2CC[C@]1(O[Si](C(C)C)(C(C)C)C(C)C)C(=O)C2`, the GI50 was 14.3 µM (inactive) in experiment [1]; 23.9 µM (inactive) in experiment [2]; 18.5 µM (inactive) in [3]; 17.8 µM in experiment [4]; 21.4 µM (inactive) in experiment [5]; 18.2 µM (inactive) in [6]. The GI50 in experiment [7] was 21.1 µM (inactive); in experiment [8], 21.9 µM (inactive); in experiment [9], 8.59 µM (inactive); in experiment [10], 18.5 µM (inactive); in experiment [11] it was 23.1 µM (inactive); in experiment [12], 15.8 µM (inactive). In addition, the GI50 in [13] was 12.9 µM (inactive); in experiment [14] it was 21.3 µM (inactive); in experiment [15], 19 µM (inactive); in experiment [16] it was 14.7 µM (inactive); in experiment [17] it was > 10 µM (inactive); in [18], 15.6 µM (inactive).
`O=C(O)CCCc1ccc2c(c1)CC1(C2)Cc2ccc(CCCC(=O)O)cc2C1`: the GI50 was > 100 µM (inactive) in experiment [1]; > 100 µM (inactive) in experiment [3]; > 100 µM in [4]; > 100 µM (inactive) in experiment [5]; > 100 µM (inactive) in experiment [6]; > 100 µM (inactive) in [7]. The GI50 in [8], in experiment [19], in experiment [9], in [10], in experiment [11] and in [12] was > 100 µM (inactive) each time. Also, the GI50 in [14], in experiment [15], in experiment [16], in experiment [17] and in experiment [18] was > 100 µM (inactive) in each case.
For the compound `CC[C@@]1(O)C(=O)OCc2c1cc1n(c2=O)Cc2c-1nc1ccccc1c2/C=N\NC(=O)C(C)N` (stereo not given in full), the GI50 was 0.405 µM (active) in experiment [1]; 0.071 µM (active) in experiment [2]; 0.186 µM (active) in experiment [3]; 4.29 µM in experiment [4]; < 0.0266 µM (active) in experiment [5]; 5.36 µM (inactive) in [6]. For the same compound, the GI50 in experiment [7] was < 0.022 µM (active); in [8] it was 1.34 µM (inactive); in [19], 1.64 µM (inactive); in experiment [9], 0.432 µM (active); in experiment [10] it was 6.71 µM (inactive); in experiment [11], 0.0923 µM (active). Moreover, the GI50 was < 0.017 µM (active) in experiment [13]; < 0.0157 µM (active) in experiment [15]; > 29.3 µM (inactive) in experiment [16]; < 0.0195 µM (active) in [17]; < 0.01 µM (active) in [18].
In the case of `CC1(C)OC2C(CO)OC(n3ccc(=O)[nH]c3=O)C2O1` (stereo not given), the GI50 in experiment [1] is > 100 µM (inactive); in experiment [2], > 100 µM (inactive); in experiment [3], > 100 µM (inactive); in experiment [4] it was > 100 µM; in [5], > 100 µM (inactive); in experiment [7], > 100 µM (inactive). Also, the GI50 in [8], in experiment [9], in [10], in experiment [11], in experiment [12] and in [13] was > 100 µM (inactive) each time. Also, the GI50 in experiment [14], in [15], in [16], in experiment [17] and in [18] was > 100 µM (inactive) throughout.
Turning to `Oc1ccccc1C1=NOC(c2ccc(C(F)(F)F)cc2)C1` (stereo not given), the GI50 is > 50 µM (inactive) in experiment [1]; > 50 µM (inactive) in experiment [2]; > 50 µM (inactive) in experiment [3]; > 50 µM (inactive) in experiment [5]; > 50 µM (inactive) in experiment [6]; 0.665 µM (active) in experiment [7]. For the same compound, the GI50 in experiment [8], in experiment [19], in experiment [9], in experiment [10], in experiment [11] and in experiment [12] was > 50 µM (inactive) throughout. The GI50 in [13] was > 50 µM (inactive); in [14], > 50 µM (inactive); in experiment [15] it was 0.92 µM (active); in experiment [17] it was > 50 µM (inactive); in [18] it was > 50 µM (inactive).
For `CC(C)=NOC(=O)OC[C@H]1O[C@@H](n2cnc3c(N)ncnc32)C(O)C1O` (stereo not given in full), the GI50 was > 100 µM (inactive) in [1]; 72.1 µM in [4]; > 100 µM (inactive) in [5]; > 100 µM (inactive) in experiment [6]; 91.6 µM (inactive) in [7]; 43.3 µM (inactive) in [8]. For the same compound, the GI50 is > 100 µM (inactive) in experiment [19]; > 100 µM (inactive) in experiment [9]; > 100 µM (inactive) in experiment [10]; > 100 µM (inactive) in experiment [11]; 52 µM (inactive) in experiment [12]; > 100 µM (inactive) in [13]. Further, the GI50 in experiment [14] is > 100 µM (inactive); in experiment [15] it was > 100 µM (inactive); in experiment [16] it was > 100 µM (inactive); in [17], > 100 µM (inactive); in [18], > 10 µM (inactive).
